± gives the uncertainty stated by the source.
Assay: xn = mol fraction of the nth substance listed

**Q.** Which viscosity (293.15 K, 101 kPa, x1 = 0.02074) does the source give for `O=S1(=O)CCCC1` + O here?
**A.** Its viscosity is 1.163 ± 0.011 mPa·s.

**Q.** What about the viscosity (293.15 K, 101 kPa, x1 = 0.04649) of the same molecule?
**A.** The viscosity was 1.387 ± 0.015 mPa·s.

**Q.** What about the viscosity (293.15 K, 101 kPa, x1 = 0.07703) of the same molecule?
**A.** The viscosity was 1.634 ± 0.021 mPa·s.

**Q.** And the viscosity (293.15 K, 101 kPa, x1 = 0.1147)?
**A.** The viscosity was 1.969 ± 0.029 mPa·s.

**Q.** And the viscosity (293.15 K, 101 kPa, x1 = 0.1615)?
**A.** The viscosity was 2.405 ± 0.041 mPa·s.

**Q.** What about the viscosity (293.15 K, 101 kPa, x1 = 0.2247) of the same molecule?
**A.** The viscosity was 3.044 ± 0.057 mPa·s.

**Q.** And the viscosity (293.15 K, 101 kPa, x1 = 0.3102)?
**A.** Its viscosity is 3.813 ± 0.079 mPa·s.

**Q.** And the viscosity (293.15 K, 101 kPa, x1 = 0.4328)?
**A.** The viscosity was 4.899 ± 0.11 mPa·s.

**Q.** What about the viscosity (293.15 K, 101 kPa, x1 = 0.6323) of the same molecule?
**A.** Its viscosity is 6.59 ± 0.16 mPa·s.

**Q.** And the viscosity (293.15 K, 101 kPa, x1 = 0.7807)?
**A.** Its viscosity is 8.243 ± 0.2 mPa·s.

**Q.** What about the viscosity (298 K, 100 kPa, x1 = 0.0215) of the same molecule?
**A.** The viscosity was 1 ± 0.1 mPa·s.

**Q.** What about the viscosity (298 K, 100 kPa, x1 = 0.035) of the same molecule?
**A.** The viscosity was 1.11 ± 0.11 mPa·s.

**Q.** What about the viscosity (298 K, 100 kPa, x1 = 0.0679) of the same molecule?
**A.** The viscosity was 1.32 ± 0.13 mPa·s.

**Q.** And the viscosity (298 K, 100 kPa, x1 = 0.0888)?
**A.** Its viscosity is 1.51 ± 0.15 mPa·s.

**Q.** And the viscosity (298 K, 100 kPa, x1 = 0.121)?
**A.** The viscosity was 1.74 ± 0.18 mPa·s.

**Q.** And the viscosity (298 K, 100 kPa, x1 = 0.221)?
**A.** Its viscosity is 2.52 ± 0.26 mPa·s.

**Q.** And the viscosity (298 K, 100 kPa, x1 = 0.569)?
**A.** The viscosity was 5.19 ± 0.53 mPa·s.

**Q.** What about the viscosity (298.15 K, 101 kPa, x1 = 0.02074) of the same molecule?
**A.** Its viscosity is 1.038 ± 0.01 mPa·s.

**Q.** And the viscosity (298.15 K, 101 kPa, x1 = 0.02077)?
**A.** Its viscosity is 1.01 ± 0.3 mPa·s.

**Q.** And the viscosity (298.15 K, 101 kPa, x1 = 0.04267)?
**A.** Its viscosity is 1.17 ± 0.35 mPa·s.

**Q.** What about the viscosity (298.15 K, 101 kPa, x1 = 0.04649) of the same molecule?
**A.** Its viscosity is 1.221 ± 0.014 mPa·s.

**Q.** What about the viscosity (298.15 K, 101 kPa, x1 = 0.07103) of the same molecule?
**A.** Its viscosity is 1.59 ± 0.48 mPa·s.

**Q.** What about the viscosity (298.15 K, 101 kPa, x1 = 0.07703) of the same molecule?
**A.** Its viscosity is 1.458 ± 0.019 mPa·s.

**Q.** What about the viscosity (298.15 K, 101 kPa, x1 = 0.09929) of the same molecule?
**A.** Its viscosity is 1.64 ± 0.49 mPa·s.

**Q.** And the viscosity (298.15 K, 101 kPa, x1 = 0.1147)?
**A.** Its viscosity is 1.735 ± 0.026 mPa·s.

**Q.** What about the viscosity (298.15 K, 101 kPa, x1 = 0.1615) of the same molecule?
**A.** The viscosity was 2.129 ± 0.036 mPa·s.

**Q.** What about the viscosity (298.15 K, 101 kPa, x1 = 0.2247) of the same molecule?
**A.** The viscosity was 2.656 ± 0.05 mPa·s.

**Q.** And the viscosity (298.15 K, 101 kPa, x1 = 0.25)?
**A.** The viscosity was 2.738 ± 0.038 mPa·s.

**Q.** What about the viscosity (298.15 K, 101 kPa, x1 = 0.3102) of the same molecule?
**A.** Its viscosity is 3.347 ± 0.069 mPa·s.

**Q.** And the viscosity (298.15 K, 101 kPa, x1 = 0.4328)?
**A.** The viscosity was 4.263 ± 0.096 mPa·s.

**Q.** And the viscosity (298.15 K, 101 kPa, x1 = 0.5)?
**A.** The viscosity was 4.583 ± 0.067 mPa·s.

**Q.** What about the viscosity (298.15 K, 101 kPa, x1 = 0.6323) of the same molecule?
**A.** The viscosity was 5.775 ± 0.14 mPa·s.

**Q.** What about the viscosity (298.15 K, 101 kPa, x1 = 0.75) of the same molecule?
**A.** The viscosity was 6.772 ± 0.086 mPa·s.

**Q.** And the viscosity (298.15 K, 101 kPa, x1 = 0.7807)?
**A.** The viscosity was 7.049 ± 0.18 mPa·s.

**Q.** And the viscosity (298.15 K, 101 kPa, x1 = 0.85)?
**A.** Its viscosity is 7.49 ± 0.089 mPa·s.

**Q.** What about the viscosity (303.15 K, 101 kPa, x1 = 0.0147) of the same molecule?
**A.** The viscosity was 0.8884 ± 0.023 mPa·s.

**Q.** And the viscosity (303.15 K, 101 kPa, x1 = 0.02074)?
**A.** Its viscosity is 0.927 ± 0.009 mPa·s.

**Q.** What about the viscosity (303.15 K, 101 kPa, x1 = 0.02077) of the same molecule?
**A.** Its viscosity is 0.91 ± 0.27 mPa·s.

**Q.** And the viscosity (303.15 K, 101 kPa, x1 = 0.0208)?
**A.** The viscosity was 0.9245 ± 0.024 mPa·s.

**Q.** What about the viscosity (303.15 K, 101 kPa, x1 = 0.04267) of the same molecule?
**A.** Its viscosity is 1.04 ± 0.31 mPa·s.

**Q.** What about the viscosity (303.15 K, 101 kPa, x1 = 0.04649) of the same molecule?
**A.** Its viscosity is 1.093 ± 0.012 mPa·s.

**Q.** And the viscosity (303.15 K, 101 kPa, x1 = 0.0701)?
**A.** The viscosity was 1.255 ± 0.033 mPa·s.

**Q.** And the viscosity (303.15 K, 101 kPa, x1 = 0.07103)?
**A.** Its viscosity is 1.34 ± 0.4 mPa·s.

**Q.** What about the viscosity (303.15 K, 101 kPa, x1 = 0.0744) of the same molecule?
**A.** Its viscosity is 1.273 ± 0.033 mPa·s.

**Q.** And the viscosity (303.15 K, 101 kPa, x1 = 0.0958)?
**A.** Its viscosity is 1.429 ± 0.037 mPa·s.

**Q.** And the viscosity (303.15 K, 101 kPa, x1 = 0.09929)?
**A.** The viscosity was 1.44 ± 0.43 mPa·s.

**Q.** And the viscosity (303.15 K, 101 kPa, x1 = 0.1435)?
**A.** The viscosity was 1.761 ± 0.046 mPa·s.

**Q.** And the viscosity (303.15 K, 101 kPa, x1 = 0.1586)?
**A.** Its viscosity is 1.852 ± 0.048 mPa·s.

**Q.** And the viscosity (303.15 K, 101 kPa, x1 = 0.1924)?
**A.** Its viscosity is 2.101 ± 0.055 mPa·s.

**Q.** What about the viscosity (303.15 K, 101 kPa, x1 = 0.25) of the same molecule?
**A.** The viscosity was 2.287 ± 0.03 mPa·s.

From the CheMixHub viscosity set
